Patent US20190315823A1, “SMALL CATIONIC ANTI-BIOFILM AND IDR PEPTIDES” (priority 2013, published 2019)
Ends that are not written are not given here.

Assays:
[1] = tested on: methicillin resistant Staphylococcus aureus (MRSA) biofilm; details: approximate peptide concentration […] (around 3 μg/ml); compared to untreated samples
Description: Methods of assessment of anti-biofilm activity—Biofilm formation was initially analyzed using a static abiotic solid surface assay as described elsewhere (de la Fuente-Nunez et al., 2012). Dilutions (1/100) of overnight cultures were incubated in BM2 biofilm-adjusted medium [62 mM potassium phosphate buffer (pH 7), 7 mM (NH4)2SO4, 2 mM MgSO4, 10 μM FeSO4, 0.4% (wt/vol) glucose, 0.5% (wt/vol) Casamino Acids], or a nutrient medium such as Luria Broth, in polypropylene microtiter plates (Falcon, United States) in the absence (control) or presence of peptide. Peptide was added at time zero (prior to adding the diluted, overnight cultures) in varying concentrations, and the decrease in biofilm formation was recorded at 22-46 h for most bacteria. Planktonic cells were removed, biofilm cells adhering to the side of the tubes were stained with crystal violet, and absorbance at 595 nm was measured using a microtiter plate reader (Bio-Tek Instruments Inc., United States). Some peptides were screened against two Gram negative organisms, P. aeruginosa and K. pneumoniae using a Bioflux apparatus (AutoMate Scientific, Berkeley, Calif.; http://www.autom8.com/bioflux_biofilm.html), which allows for the high-throughput, real-time analysis of biofilms.

[2] = tested on: human peripheral blood mononuclear cells (MCP-1); test: SPOT-synthesized derivative screen: production of chemokine MCP-1; type: cell-based; details: Table 12, No LPS, human PBMC, peptide at ~18-24 μM; for MCP1: background subtracted 139 (HH2 derivatives), 170 (1018 derivatives), 242 (1002 and hybrid peptides) pg/ml
Description: Venous blood (20 ml) from healthy volunteers was collected in Vacutainer® collection tubes containing sodium heparin as an anticoagulant (Becton Dickinson, Mississauga, ON) in accordance with UBC ethical approval and guidelines. Blood was diluted 1:1 with complete RPMI 1640 medium and separated by centrifugation over a Ficoll-Paque® Plus (Amersham Biosciences, Piscataway, N.J., USA) density gradient. White blood cells were isolated from the buffy coat, washed twice in RPMI 1640 complete medium, and the number of peripheral blood mononuclear cells (PBMC) was determined by Trypan blue exclusion. PBMC (5×10^5) were seeded into 12-well tissue culture dishes (Falcon; Becton Dickinson) at 0.75 to 1×10^6 cells/ml at 37° C. in 5% CO2. The above conditions were chosen to mimic conditions for circulating blood monocytes entering tissues at the site of infection via extravasation.
Following incubation of the cells under various treatment regimens, the tissue culture supernatants were centrifuged at 1000×g for 5 min, then at 10,000×g for 2 min to obtain cell-free samples. Supernatants were aliquoted and then stored at −20° C. prior to assay for various chemokines by capture ELISA (eBioscience and BioSource International Inc., CA, USA respectively)

[3] = tested on: LPS-stimulated human peripheral blood mononuclear cells (IL1-β); type: cell-based; details: Table 12, cells stimulated with 10 ng/ml LPS; for IL1β Production: LPS alone 1313 (HH2 derivatives), 1927 (1018 derivatives), 2455 (1002 and hybrid peptides) pg/ml
Description: LPS from P. aeruginosa strain H103 was highly purified free of proteins and lipids using the Darveau-Hancock method. Briefly, P. aeruginosa was grown overnight in LB broth at 37° C. Cells were collected and washed and the isolated LPS pellets were extracted with a 2:1 chloroform:methanol solution to remove contaminating lipids. Purified LPS samples were quantitated using an assay for the specific sugar 2-keto-3-deoxyoctosonic acid (KDO assay) and then resuspended in endotoxin-free water (Sigma-Aldrich).

| Substance | % Biofilm inhibition [1] | Fold increase in MCP1 cf. untreated cells [2] | MCP1 [2] | Fold change in IL1β relative to no peptide LPS stimulated cells [3] | IL1β Production [3] |
| --- | --- | --- | --- | --- | --- |
| 1018-L10: single substituted 1018 peptide (VRLIVAVRILRR-NH2) [Peptide 1018-L10] | 38% | 0.7 | -60 pg/mL | 0.10 | 127 pg/mL |
| HH2-G3: single substituted HH2 peptide (VQGRIRVAVIRA-NH2) | 21% | 1.7 | 117 pg/mL | 1.29 | 1687 pg/mL |
| 1002-G3: single substituted 1002 peptide (VQGWLIVWRIRK-NH2) [Peptide 1002-G3] | 56% | 14.0 | 3157.8 pg/mL | 0.05 | 127 pg/mL |
| 1018-K1: single substituted 1018 peptide (KRLIVAVRIWRR-NH2) [Peptide 1018-K1] | 49% | 1.2 | 40 pg/mL | 0.13 | 173 pg/mL |
| 1018-G9: single substituted 1018 peptide (VRLIVAVRGWRR-NH2) [Peptide 1018-G9] | 67% | 0.9 | -17 pg/mL | 1.13 | 1481 pg/mL |
| HH2-L7: single substituted HH2 peptide (VQLRIRLAVIRA-NH2) | 68% | 19 | 3138 pg/mL | 1.05 | 1378 pg/mL |
| 1002-W2: single substituted 1002 peptide (VWRWLIVWRIRK-NH2) [Peptide 1002-W2] | 61% | 11.8 | 2611.5 pg/mL | 0.05 | 127 pg/mL |
| 1018-I5: single substituted 1018 peptide (VRLIIAVRIWRR-NH2) [Peptide 1018-I5] | 60% | 13 | 2103 pg/mL | 0.10 | 127 pg/mL |
| 1002-L1: single substituted 1002 peptide (LQRWLIVWRIRK-NH2) [Peptide 1002-L1] | 69% | 13.3 | 2988.6 pg/mL | 0.05 | 127 pg/mL |
| 1002-L11: single substituted 1002 peptide (VQRWLIVWRILK-NH2) [Peptide 1002-L11] | 61% | 9.5 | 2048.4 pg/mL | 0.05 | 127 pg/mL |
| 1018-K7: single substituted 1018 peptide (VRLIVAKRIWRR-NH2) [Peptide 1018-K7] | 23% | 1.5 | 92 pg/mL | 0.93 | 1222 pg/mL |
| 1002-V10: single substituted 1002 peptide (VQRWLIVWRVRK-NH2) [Peptide 1002-V10] | 63% | 2.3 | 308.0 pg/mL | 0.05 | 127 pg/mL |
| 1002-L9: single substituted 1002 peptide (VQRWLIVWLIRK-NH2) [Peptide 1002-L9] | 57% | 1.8 | 199.1 pg/mL | 0.05 | 127 pg/mL |
| 1002-W7: single substituted 1002 peptide (VQRWLIWWRIRK-NH2) [Peptide 1002-W7] | 62% | 1.5 | 128.3 pg/mL | 0.05 | 127 pg/mL |
| 1018-Q3: single substituted 1018 peptide (VRQIVAVRIWRR-NH2) [Peptide 1018-Q3] | 12% | 1.0 | -2 pg/mL | 1.03 | 1359 pg/mL |
| HH2-I3: single substituted HH2 peptide (VQIRIRVAVIRA-NH2) | 62% | 6.8 | 982 pg/mL | 1.02 | 1336 pg/mL |
| HH2-I1: single substituted HH2 peptide (IQLRIRVAVIRA-NH2) | 73% | 51 | 8573 pg/mL | 0.84 | 1103 pg/mL |
| 1018-A1: single substituted 1018 peptide (ARLIVAVRIWRR-NH2) [Peptide 1018-A1] | 51% | 1.9 | 161 pg/mL | 0.13 | 170 pg/mL |
| 1002-V12: single substituted 1002 peptide (VQRWLIVWRIRV-NH2) [Peptide 1002-V12] | 67% | 1.3 | 76.4 pg/mL | 0.05 | 127 pg/mL |
| HH2-I11: single substituted HH2 peptide (VQLRIRVAVIIA-NH2) | 55% | 60 | 9977 pg/mL | 1.07 | 1402 pg/mL |
| 1018-L11: single substituted 1018 peptide (VRLIVAVRIWLR-NH2) [Peptide 1018-L11] | 4% | 1.7 | 118 pg/mL | 1.12 | 1467 pg/mL |
| HH2-R1: single substituted HH2 peptide (RQLRIRVAVIRA-NH2) | 53% | 25 | 4034 pg/mL | 1.50 | 1965 pg/mL |
| HH2C-HH2N: derivative of HH2, 1002 and 1018 made by SPOT synthesis (VAVIRAVQLRIR-NH2) | 61% | 2.0 | 239.0 pg/mL | 0.31 | 769 pg/mL |
| HH2-I9: single substituted HH2 peptide (VQLRIRVAIIRA-NH2) | 73% | 50 | 8276 pg/mL | 0.75 | 980 pg/mL |
| 1002-G1: single substituted 1002 peptide (GQRWLIVWRIRK-NH2) [Peptide 1002-G1] | 68% | 14.8 | 3335.7 pg/mL | 0.05 | 127 pg/mL |
